Measured values taken from US6833489B1, “Assays for modulators of prolyl-4-hydroxylase” (Wisconsin Alumni Research Foundation, priority 1999, dated 2004).

System: C. elegans wild-type, dpy-18(ok162) or phy-2(ok177)
Assay: Exposure of adult hermaphrodites to inhibitors, lethality of progeny
Assay type: in vivo, Caenorhabditis elegans
Settings: regardless of genotype (wild-type
Method: All wild-type C. elegans were from an N2 Bristol strain. Worms were cultured at 20° C. under standard conditions unless otherwise noted (J. E. Sulston and J. Hodgkin, Methods. In The Nematode Caenorhabditis elegans, pp. 587-606, 1988). LG II:unc-4(e120) was used as a marker for transgenic assays. LG III:dpy-18(ok162) is a deletion mutation isolated specifically as a knock-out of the prolyl 4-hydroxylase on chromosome III. […] 11 alleles (mutations in the dpy-18 gene) are known—dpy-18: e346, e364, e499, e1096, e1270, e1862, h662, s361, s1304, s1305, s1306. LG IV:unc-22(e66) is a mutation that can be used to recognize chromosome IV, and poh-1(ok-177) is a deletion mutation isolated specifically as a knock-out of the prolyl 4-hydroxylase gene on chromosome IV.
Small molecules that inhibit protein function can be used to confirm and extend results from genetic experiments. We tested two known prolyl 4-hydroxylase inhibitors for their effects on C. elegans. […] Both inhibitors limit prolyl 4-hydroxylase activity in cells, where their esters are hydrolyzed to form competitors of α-ketoglutarate. We also tested Inhibitor III (which is similar in structure to Inhibitor II) and Inhibitor IV (which is similar in structure to Inhibitor I). Neither Inhibitor III nor […] is known to limit prolyl 4-hydroxylase activity in cells. […]

| Structure (SMILES) | lethality of progeny (high level 1.3 μM, FIG. 2B) | lethality of progeny (high level 2.7 μM, FIG. 2A) |
| --- | --- | --- |
| COC(=O)CNC(=O)C(=O)OC [Inhibitor II, dimethyloxalylglycine] | all progeny died |  |
| CCOC(=O)c1ccnc(C(=O)OCC)c1 [Inhibitor I, 2,4-diethylpyridine dicarboxylate] |  | all progeny died |
